Assay results: US12441730B2, “PRMT5 inhibitors” (Merck Sharp & Dohme LLC, priority 2019, dated 2025)
Where two headings read alike, the source gives them in different places.

Assays:
[1] = biological target: T1, Full-length (FL)-PRMT5-MEP50 enzyme complex (Homo sapiens, UniProt O14744); assay: PRMT5-MEP50 Enzyme Methylation Assay (Version A); type: biochemical
T1 construct: Full-length (FL)-PRMT5-MEP50 enzyme complex (recombinant proteins from baculovirus-transfected Sf21 cells: FL-PRMT5; MW=73837 kDa and FL-MEP50; MW=38614); made in house; host or cells: baculovirus-transfected Sf21 cells
How it was run: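 Compound was pre-incubated with enzyme for 60 min, then reacted 150 min at 37° C. at final 1.0 nM PRMT5-MEP50, 15 μM SAM and 75 nM biotinylated H4R3(Me1) peptide, in 50 mM Bicine pH 8.0 with 1% DMSO. SAMDI mass-spectrometric readout of Me1→Me2 conversion. EC50 from 4- or 7-parameter regression.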

[2] = tested on: symmetric dimethylation of arginine (SDMA) of PRMT5 substrates in MCF-7 cells; assay: PRMT5 Cell Target Engagement (TE) Assay; type: cell-based; conditions: Homo sapiens, MCF7, 72 h, 3 days treatment, SDMA high content imaging
How it was run: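 Readout is single-cell nuclear symmetric-dimethylarginine immunofluorescence (Alexa488), normalized to DMSO-treated cells. Compounds were applied to MCF-7 cells for 3 days at 37 °C, top concentration 10000 nM in 1:3 steps over ten points; curves fitted with 4-parameter robust fit.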

[3] = single EC50 = 4 parameter single site sigmoidal fit, EC50 1 = first value of 7 parameter biphasic fit, read-out: Enzyme Methylation Assay Version A (EC50 or EC50 1)
[4] = second value of 7 parameter biphasic fit, read-out: Enzyme Methylation Assay Version A (EC50 2)

T1 sequence (O14744 whole entry): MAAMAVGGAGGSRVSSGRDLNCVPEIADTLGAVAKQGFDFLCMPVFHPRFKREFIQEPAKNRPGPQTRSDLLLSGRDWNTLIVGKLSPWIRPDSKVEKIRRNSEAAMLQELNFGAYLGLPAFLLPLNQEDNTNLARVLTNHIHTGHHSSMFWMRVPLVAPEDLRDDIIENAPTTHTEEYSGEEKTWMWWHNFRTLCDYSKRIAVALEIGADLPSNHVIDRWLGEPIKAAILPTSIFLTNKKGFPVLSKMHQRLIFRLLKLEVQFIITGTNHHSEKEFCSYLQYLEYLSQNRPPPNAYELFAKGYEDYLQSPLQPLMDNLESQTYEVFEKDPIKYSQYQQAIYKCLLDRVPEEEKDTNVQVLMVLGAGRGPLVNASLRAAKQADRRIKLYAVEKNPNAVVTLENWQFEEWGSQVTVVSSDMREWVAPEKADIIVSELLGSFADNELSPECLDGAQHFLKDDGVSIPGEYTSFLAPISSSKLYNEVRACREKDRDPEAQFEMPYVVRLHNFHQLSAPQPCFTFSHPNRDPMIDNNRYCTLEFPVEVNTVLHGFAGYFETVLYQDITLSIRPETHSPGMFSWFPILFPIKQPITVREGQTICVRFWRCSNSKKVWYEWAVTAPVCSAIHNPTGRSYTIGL
T1 sequence (Q9BQA1 whole entry partner): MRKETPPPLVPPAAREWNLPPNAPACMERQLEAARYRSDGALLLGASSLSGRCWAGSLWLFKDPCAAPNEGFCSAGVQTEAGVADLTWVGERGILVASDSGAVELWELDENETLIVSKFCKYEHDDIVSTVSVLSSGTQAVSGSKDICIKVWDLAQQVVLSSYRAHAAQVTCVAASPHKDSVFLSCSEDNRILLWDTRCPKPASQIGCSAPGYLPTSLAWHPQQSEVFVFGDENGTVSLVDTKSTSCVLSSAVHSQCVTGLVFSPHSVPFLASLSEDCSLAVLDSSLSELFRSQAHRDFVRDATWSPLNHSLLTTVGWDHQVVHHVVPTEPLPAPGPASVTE

| EC50 [1, 3] | EC50 [2] | EC50 [1, 4] | Compound |
| --- | --- | --- | --- |
| 8.47 nM | 26.7 nM |  | Cc1ccc2c(c1)C[C@]1(CCN(C(=O)c3cn4cc(C5CC5)cnc4n3)C[C@H]1O)NC2 (single isomer, unassigned) [Example 227] |
| 0.556 nM | 9.35 nM | 153 nM | COc1nc2nc(C(=O)N3CC[C@]4(Cc5ccccc5CN4)[C@H](O)C3)cn2cc1Br (single isomer, unassigned) [Example 248] |
| 20.8 nM | 311 nM | 8510 nM | Cn1c(=O)c(Br)cn2cc(C(=O)N3CC[C@]4(Cc5ccccc5CN4)[C@H](O)C3)nc12 (single isomer, unassigned) [Example 249] |
| 0.498 nM | 27.1 nM | 138 nM | COC(C)(C)c1ccc2nc(C(=O)N3CC[C@]4(Cc5ccccc5CN4)[C@H](O)C3)cn2c1 (stereo in doubt) [Example 46, (3′-hydroxy-2,4-dihydro-1H-spiro[isoquinoline-3,4′-piperidin]-1′-yl)(6-(2-methoxypropan-2-yl)imidazo[1,2-a]pyridin-2-yl)methanone] |
| 0.501 nM | 2.92 nM | 75.3 nM | O=C(c1cn2cc(Br)ccc2n1)N1CC[C@]2(Cc3ccccc3CN2)[C@H](O)C1 [Example 1, (6-bromoimidazo[1,2-a]pyridin-2-yl)((3R,3′R)-3′-hydroxy-1,4-dihydro-2H-spiro[isoquinoline-3,4′-piperidin]-1′-yl)methanone] |
| 0.629 nM | 75.8 nM | 1380 nM | CN(C)C(=O)c1ccc2nc(C(=O)N3CC[C@]4(Cc5ccccc5CN4)[C@H](O)C3)cn2c1 [Example 2, 2-((3R,3′R)-3′-hydroxy-2,4-dihydro-1H-spiro[isoquinoline-3,4′-piperidin]-1′-ylcarbonyl)-N,N-dimethylimidazo[1,2-a]pyridine-6-carboxamide] |
| 1.45 nM | 14.5 nM | 918 nM | O=C(c1cn2cc(Cl)cnc2n1)N1CC[C@]2(Cc3ccccc3CN2)[C@H](O)C1 [Example 3, (6-chloroimidazo[1,2-a]pyrimidin-2-yl)((3R,3′R)-3′-hydroxy-1,4-dihydro-2H-spiro[isoquinoline-3,4′-piperidin]-1′-yl)methanone] |
| 0.71 nM | 3.24 nM | 220 nM | O=C(c1cn2cc(Br)cc(CO)c2n1)N1CC[C@]2(Cc3ccccc3CN2)[C@H](O)C1 [Example 6, (6-bromo-8-(hydroxymethyl)imidazo[1,2-a]pyridin-2-yl)((3R,3’R)-3′-hydroxy-1,4-dihydro-2H-spiro[isoquinoline-3,4′-piperidin]-1′-yl)methanone] |
| 0.639 nM | 0.545 nM | 52.5 nM | O=C(c1cn2cc(Br)cc(I)c2n1)N1CC[C@]2(Cc3ccccc3CN2)[C@H](O)C1 [Example 7] |
| 1.53 nM | 3.63 nM | 403 nM | COc1nc(Br)cn2cc(C(=O)N3CC[C@]4(Cc5ccccc5CN4)[C@H](O)C3)nc12 [Example 8] |
| 13.5 nM | 694 nM | 4680 nM | O=C(c1ccc2c(O)c(C3CC3)cnc2c1)N1CC[C@]2(Cc3ccccc3CN2)[C@H](O)C1 [Example 9, (3-cyclopropyl-4-hydroxyquinolin-7-yl)((3R,3’R)-3′-hydroxy-1,4-dihydro-1′H,2H-spiro[isoquinoline-3,4′-piperidin]-1′-yl)methanone] |
| 0.815 nM | 4.21 nM | 180 nM | CCOc1nc(Br)cn2cc(C(=O)N3CC[C@]4(Cc5ccccc5CN4)[C@H](O)C3)nc12 [Example 10] |
| 0.495 nM | 4.2 nM | 88.6 nM | CC(C)Oc1nc(Br)cn2cc(C(=O)N3CC[C@]4(Cc5ccccc5CN4)[C@H](O)C3)nc12 [Example 11, {6-bromo-8-[(propan-2-yl)oxy]imidazo[1,2-a]pyrazin-2-yl}((3R,3’R)-3′-hydroxy-1,4-dihydro-1′H,2H-spiro[isoquinoline-3,4′-piperidin]-1′-yl)methanone] |
| 0.231 nM | 9.48 nM | 159 nM | O=C(c1cn2cc(Br)nc(OC3COC3)c2n1)N1CC[C@]2(Cc3ccccc3CN2)[C@H](O)C1 [Example 12, (6-bromo-8-(oxetan-3-yloxy)imidazo[1,2-a]pyrazin-2-yl)((3R,3’R)-3′-hydroxy-1,4-dihydro-2H-spiro[isoquinoline-3,4′-piperidin]-1′-yl)methanone] |
| 0.406 nM | 8.16 nM | 320 nM | O=C1CCCN1CCOc1nc(Br)cn2cc(C(=O)N3CC[C@]4(Cc5ccccc5CN4)[C@H](O)C3)nc12 [Example 13, 1-(2-((6-bromo-2-((3R,3’R)-3′-hydroxy-1,4-dihydro-2H-spiro[isoquinoline-3,4′-piperidine]-1′-carbonyl)imidazo[1,2-a]pyrazin-8-yl)oxy)ethyl)pyrrolidin-2-one] |
| 100 nM | 547 nM | 57500 nM | O=C(c1cn2cc(Br)cc(N3CCCC3=O)c2n1)N1CC[C@]2(Cc3ccccc3CN2)[C@H](O)C1 [Example 14, 1-(6-bromo-2-((3R3’R)-3′-hydroxy-1,4-dihydro-2H-spiro[isoquinoline-3,4′-piperidine]-1′-carbonyl)imidazo[1,2-a]pyridin-8-yl)pyrrolidin-2-one] |
| 2.02 nM | 50.9 nM | 1590 nM | O=C(c1cn2cc(Br)ccc2n1)N1CCC2(Cc3ccccc3CN2)C(O)C1 (stereo not drawn) [Example 16, A diastereomer of (6-bromoimidazo[1,2-a]pyridin-2-yl)(3′-hydroxy-1,4-dihydro-1′H,2H-spiro[isoquinoline-3,4′-piperidin]-1′-yl)methanone] |
| 1.51 nM | 14.1 nM | 794 nM | O=C(c1cc2ncc(Br)cn2n1)N1CC[C@]2(Cc3ccccc3CN2)[C@H](O)C1 [Example 17, (6-bromopyrazolo[1,5-a]pyrimidin-2-yl)((3R,3’R)-3′-hydroxy-1,4-dihydro-1′H,2H-spiro[isoquinoline-3,4′-piperidin]-1′-yl)methanone] |
| 63.1 nM | 1010 nM | 57500 nM | O=C(c1nc2cc(Cl)ccn2n1)N1CC[C@]2(Cc3ccccc3CN2)[C@H](O)C1 [Example 18] |
| 0.305 nM | 10.2 nM | 105 nM | COCCOc1nc(Br)cn2cc(C(=O)N3CC[C@]4(Cc5ccccc5CN4)[C@H](O)C3)nc12 [Example 19, (6-bromo-8-(2-methoxyethoxy)imidazo[1,2-a]pyrazin-2-yl)((3R,3’R)-3′-hydroxy-1,4-dihydro-2H-spiro[isoquinoline-3,4′-piperidin]-1′-yl)methanone] |
| 0.438 nM | 16.5 nM | 151 nM | CC(C)(O)COc1nc(Br)cn2cc(C(=O)N3CC[C@]4(Cc5ccccc5CN4)[C@H](O)C3)nc12 [Example 20, (6-bromo-8-(2-hydroxy-2-methylpropoxy)imidazo[1,2-a]pyrazin-2-yl)((3R,3’R)-3′-hydroxy-1,4-dihydro-2H-spiro[isoquinoline-3,4′-piperidin]-1′-yl)methanone] |
| 0.191 nM | 2.13 nM |  | N#CC1(COc2nc(Br)cn3cc(C(=O)N4CC[C@]5(Cc6ccccc6CN5)[C@H](O)C4)nc23)CC1 [Example 21, 1-(((6-bromo-2-((3R,3’R)-3′-hydroxy-1,4-dihydro-2H-spiro[isoquinoline-3,4′-piperidine]-l′-carbonyl)imidazo[1,2-a]pyrazin-8-yl)oxy)methyl)cyclopropane-1-carbonitrile] |
| 0.461 nM | 4.09 nM | 146 nM | O=C(c1cn2cc(Br)cnc2n1)N1CC[C@]2(Cc3ccccc3CN2)[C@H](O)C1 [Example 24, (6-bromoimidazo[1,2-a]pyrimidin-2-yl)((3R,3’RR)-3′-hydroxy-1,4-dihydro-1′H,2H-spiro[isoquinoline-3,4′-piperidin]-1′-yl)methanone] |
| 7.12 nM | 30.2 nM | 2040 nM | O=C(c1cnc2ncc(Br)cn12)N1CC[C@]2(Cc3ccccc3CN2)[C@H](O)C1 [Example 25, (6-bromoimidazo[1,2-a]pyrimidin-3-yl)((3R,3’R)-3′-hydroxy-1,4-dihydro-1′H,2H-spiro[isoquinoline-3,4′-piperidin]-1′-yl)methanone] |
| 1.44 nM | 12.3 nM | 684 nM | CCN1CCNc2cc(C(=O)N3CC[C@]4(Cc5ccccc5CN4)[C@H](O)C3)ccc2C1=O [Example 26, 4-ethyl-8-((3R,3’R)-3′-hydroxy-1,4-dihydro-1′H,2H-spiro[isoquinoline-3,4′-piperidine]-1′-carbonyl)-1,2,3,4-tetrahydro-5H-1,4-benzodiazepin-5-one] |
| 3.65 nM | 36.8 nM | 3350 nM | CC(C)N1CCNc2cc(C(=O)N3CC[C@]4(Cc5ccccc5CN4)[C@H](O)C3)ccc2C1=O [Example 27, 8-((3R,3’R)-3′-hydroxy-1,4-dihydro-1′H,2H-spiro[isoquinoline-3,4′-piperidine]-1′-carbonyl)-4-(propan-2-yl)-1,2,3,4-tetrahydro-5H-1,4-benzodiazepin-5-one] |
| 0.816 nM | 2.75 nM |  | COCc1cc(Br)cn2cc(C(=O)N3CC[C@]4(Cc5ccccc5CN4)[C@H](O)C3)nc12 [Example 28, (6-bromo-8-(methoxymethyl)imidazo[1,2-a]pyridin-2-yl)((3R,3’R)-3′-hydroxy-1,4-dihydro-2H-spiro[isoquinoline-3,4′-piperidin]-1′-yl)methanone] |
